These compounds were tested against full length MPS1 (Homo sapiens (Human), UniProt P33981) (assay: Measurement of inhibition of MPS1 kinase (Caliper EZ reader, fluorescent labelled peptide H236)). Conditions: full length MPS1 12.5 nM or 3 nM, peptide H236 5 μM, ATP 10 μM, 60 min at room temperature.
Format: biochemical
Method: The reaction was carried out for 60 min at room temperature and stopped by the addition of buffer (10 μl) containing 20 mM EDTA, 0.05% (v/v) Brij-35, in 0.1M HEPES-buffered saline (Free acid, Sigma, UK). The plate was read on a Caliper EZ reader II (Caliper Life Sciences).
The reader provides a Software package (‘Reviewer’) which converts the peak heights into % conversion by measuring both product and substrate peak and also allows selection of control well which represent 0% and 100% inhibition respectively. The % inhibition of the compounds is calculated relative to the means of selected control wells. IC50s are determined by testing the compounds at a range of concentrations from 0.25 nM-100 μM. The % inhibitions at each concentration are then fitted to a 4 parameter logistic fit: y=(a+((b−a)/(1+((c/x^d)))) where a=asym min, b=asym max, c=IC50 and d=hill coefficient

Sequence of full length MPS1 (P33981 whole entry): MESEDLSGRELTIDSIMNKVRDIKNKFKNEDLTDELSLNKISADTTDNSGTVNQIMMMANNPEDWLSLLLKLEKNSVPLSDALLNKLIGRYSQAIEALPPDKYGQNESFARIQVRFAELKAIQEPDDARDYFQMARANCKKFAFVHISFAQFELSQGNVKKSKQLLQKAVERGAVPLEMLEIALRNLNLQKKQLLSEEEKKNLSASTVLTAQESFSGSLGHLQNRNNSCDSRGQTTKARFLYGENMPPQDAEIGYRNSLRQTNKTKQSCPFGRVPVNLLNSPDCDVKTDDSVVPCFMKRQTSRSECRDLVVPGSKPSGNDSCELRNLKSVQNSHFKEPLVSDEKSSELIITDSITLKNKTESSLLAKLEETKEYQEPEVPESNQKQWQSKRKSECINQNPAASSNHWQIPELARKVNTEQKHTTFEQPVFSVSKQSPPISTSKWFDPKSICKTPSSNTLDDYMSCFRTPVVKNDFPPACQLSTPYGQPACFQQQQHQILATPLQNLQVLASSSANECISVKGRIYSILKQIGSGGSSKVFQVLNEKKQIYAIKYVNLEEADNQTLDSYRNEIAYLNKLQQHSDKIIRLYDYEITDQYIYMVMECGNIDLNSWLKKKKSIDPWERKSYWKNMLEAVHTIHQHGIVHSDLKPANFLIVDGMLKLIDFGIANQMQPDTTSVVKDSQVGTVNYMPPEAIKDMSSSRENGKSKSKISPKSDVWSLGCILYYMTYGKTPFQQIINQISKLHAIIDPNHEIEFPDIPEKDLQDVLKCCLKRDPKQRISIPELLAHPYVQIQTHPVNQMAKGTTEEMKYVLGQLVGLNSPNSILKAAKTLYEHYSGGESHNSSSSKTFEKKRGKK

Row | IC50 [nM] | Compound
1 | 4 | COc1cc(-c2cnc(C)n2C)ccc1Nc1cc2cc(-c3cnn(CC(F)(F)F)c3)ccc2cn1 [Example 44, N-(4-(1,2-Dimethyl-1H-imidazol-5-yl)-2-methoxyphenyl)-6-(1-(2,2,2-trifluoroethyl)-1H-pyrazol-4-yl)isoquinolin-3-amine]
2 | 5 | COc1cc(C(=O)N2CC(OC)C2)ccc1Nc1cc2cc(-c3cnn(C(C)C(C)(C)O)c3)ccc2cn1 (racemic) [Example 76, (4-((6-(1-(3-Hydroxy-3-methylbutan-2-yl)-1H-pyrazol-4-yl)isoquinolin-3-yl)amino)-3-methoxyphenyl)(3-methoxyazetidin-1-yl)methanone]
3 | 2 | COC1CN(C(=O)c2ccc(Nc3cc4cc(-c5cnn(CC(C)(C)O)c5)ccc4cn3)c(OC(F)F)c2)C1 [Example 91, (3-(Difluoromethoxy)-4-(6-(1-(2-hydroxy-2-methylpropyl)-1H-pyrazol-4-yl)isoquinolin-3-ylamino)phenyl)(3-methoxyazetidin-1-yl)methanone]
4 | 5 | COc1cc(-c2cnc(C)n2C)ccc1Nc1cc2cc(-c3cnn(CC(C)O)c3)ccc2cn1 (single isomer, unassigned) [Example 99, 1-(4-(3-((4-(1,2-dimethyl-1H-imidazol-5-yl)-2-methoxyphenyl)amino)isoquinolin-6-yl)-1H-pyrazol-1-yl)propan-2-ol]
5 | 4 | CCC(O)Cn1cc(-c2ccc3cnc(Nc4ccc(C(=O)N5CC(OC)C5)cc4OC)cc3c2)cn1 (racemic) [Example 71, (4-((6-(1-(2-Hydroxybutyl)-1H-pyrazol-4-yl)isoquinolin-3-yl)amino)-3-methoxyphenyl)(3-methoxyazetidin-1-yl)methanone]
6 | 8 | COc1cc(C(=O)N2CC(OC)C2)ccc1Nc1cc2cc(-c3cnn(CC4(O)CCC4)c3)ccc2cn1 [Example 87, (4-((6-(1-((1-Hydroxycyclobutyl)methyl)-1H-pyrazol-4-yl)isoquinolin-3-yl)amino)-3-methoxy-phenyl)(3-methoxyazetidin-1-yl)methanone]
7 | 3 | COc1cc(-c2cnc(C)n2C)ccc1Nc1cc2cc(-c3cnn(CC(C)O)c3)ccc2cn1 (single isomer, unassigned) [Example 98, 1-(4-(3-((4-(1,2-dimethyl-1H-imidazol-5-yl)-2-methoxyphenyl)amino)isoquinolin-6-yl)-1H-pyrazol-1-yl)propan-2-ol]
8 | 6 | COc1cc(-c2cnc(C)n2C)ccc1Nc1cc2cc(-c3cnn(C4CCOCC4)c3)ccc2cn1 [Example 39, N-(4-(1,2-Dimethyl-1H-imidazol-5-yl)-2-methoxyphenyl)-6-(1-(tetrahydro-2H-pyran-4-yl)-1H-pyrazol-4-yl)isoquinolin-3-amine]
9 | 17 | COCC(O)Cn1cc(-c2ccc3cnc(Nc4ccc(C(=O)N5CC(OC)C5)cc4OC)cc3c2)cn1 (racemic) [Example 78, (4-((6-(1-(2-Hydroxy-3-methoxypropyl)-1H-pyrazol-4-yl)isoquinolin-3-yl)amino)-3-methoxyphenyl)(3-methoxyazetidin-1-yl)methanone]
10 | 4 | COc1cc(C(=O)N2CC(OC)C2)ccc1Nc1cc2cc(-c3cnn(CC(O)C(C)C)c3)ccc2cn1 (racemic) [Example 73, (4-((6-(1-(2-Hydroxy-3-methylbutyl)-1H-pyrazol-4-yl)isoquinolin-3-yl)amino)-3-methoxy-phenyl)(3-methoxyazetidin-1-yl)methanone]
11 | 4 | COCc1c(-c2ccc(Nc3cc4cc(-c5cnn(CC(C)(C)O)c5)ccc4cn3)c(OC)c2)cnn1C [Example 51, 1-(4-(3-(2-Methoxy-4-(5-(methoxymethyl)-1-methyl-1H-pyrazol-4-yl)phenylamino)isoquinolin-6-yl)-1H-pyrazol-1-yl)-2-methylpropan-2-ol]
12 | 2 | COc1cc(-c2nnc3n2CCNC3)ccc1Nc1cc2cc(-c3cnn(CC(C)(C)O)c3)ccc2cn1 [Example 112, 1-(4-(3-(2-Methoxy-4-(5,6,7,8-tetrahydro-[1,2,4]triazolo[4,3-a]pyrazin-3-yl)phenylamino)-isoquinolin-6-yl)-1H-pyrazol-1-yl)-2-methylpropan-2-ol]
13 | 3 | COc1nc(-c2cnc(C)n2C)ccc1Nc1cc2cc(-c3cnn(CC(C)(C)O)c3)ccc2cn1 [Example 56, 1-(4-(3-(6-(1,2-Dimethyl-1H-imidazol-5-yl)-2-methoxypyridin-3-ylamino)isoquinolin-6-yl)-1H-pyrazol-1-yl)-2-methylpropan-2-ol]
14 | 23 | Cc1nnc(-c2ccc(Nc3cc4cc(-c5cnn(CC(C)(C)O)c5)ccc4cn3)c(Cl)c2)o1 [Example 77, 1-(4-(3-((2-Chloro-4-(5-methyl-1,3,4-oxadiazol-2-yl)phenyl)amino)isoquinolin-6-yl)-1H-pyrazol-1-yl)-2-methylpropan-2-ol]
15 | 6 | Cc1ncc(-c2ccc(Nc3cc4cc(-c5cnn(CC(C)(C)O)c5)ccc4cn3)cc2)n1C [Example 47, 1-(4-(3-(4-(1,2-Dimethyl-1H-imidazol-5-yl)phenylamino)isoquinolin-6-yl)-1H-pyrazol-1-yl)-2-methylpropan-2-ol]
16 | 2 | COc1cc(C(=O)N2CC(OC)C2)ccc1Nc1cc2cc(-c3cn(CC(C)(C)O)nn3)ccc2cn1 [Example 96, (4-(6-(1-(2-Hydroxy-2-methylpropyl)-1H-1,2,3-triazol-4-yl)isoquinolin-3-ylamino)-3-methoxyphenyl)(3-methoxyazetidin-1-yl)methanone]

Continued, compound first:

Row | Compound | IC50 [nM]
17 | COc1cc(-c2cnc(C)n2C)ccc1Nc1cc2cc(-c3cnn(C)c3C)ccc2cn1 [Example 20, N-(4-(1,2-dimethyl-1H-imidazol-5-yl)-2-methoxyphenyl)-6-(1,5-dimethyl-1H-pyrazol-4-yl)isoquinolin-3-amine] | 2
18 | COc1cc(-c2cnc(C)n2C)ccc1Nc1cc2cc(-c3cnn(CC4CC4)c3)ccc2cn1 [Example 2, 6-(1-(Cyclopropylmethyl)-1H-pyrazol-4-yl)-N-(4-(1,2-dimethyl-1H-imidazol-5-yl)-2-methoxyphenyl)isoquinolin-3-amine] | 1
19 | COc1cc(C(=O)N2CC(OC)C2)ccc1Nc1cc2cc(-c3cnn(C)c3)ccc2cn1 [Example 24, (3-Methoxy-4-((6-(1-methyl-1H-pyrazol-4-yl)isoquinolin-3-yl)amino)phenyl)(3-methoxyazetidin-1-yl)methanone] | 2
20 | COc1cc(-c2cnc(C)n2C)ccc1Nc1cc2cc(-c3cncs3)ccc2cn1 [Example 9, N-(4-(1,2-dimethyl-1H-imidazol-5-yl)-2-methoxyphenyl)-6-(thiazol-5-yl)isoquinolin-3-amine] | 4
21 | Cc1ncc(-c2ccc(Nc3cc4cc(-c5cnn(C)c5)ccc4cn3)c(Cl)c2)n1C [Example 22, N-(2-chloro-4-(1,2-dimethyl-1H-imidazol-5-yl)phenyl)-6-(1-methyl-1H-pyrazol-4-yl)isoquinolin-3-amine] | 4
22 | COc1cc(-c2cnc(C)n2C)ccc1Nc1cc2cc(-c3cnn(CC4CCC4)c3)ccc2cn1 [Example 28, 6-(1-(Cyclobutylmethyl)-1H-pyrazol-4-yl)-N-(4-(1,2-dimethyl-1H-imidazol-5-yl)-2-methoxyphenyl)isoquinolin-3-amine] | 3
23 | COc1cc(-c2cnc(C)n2C)ccc1Nc1cc2cc(-c3cnco3)ccc2cn1 [Example 6, N-(4-(1,2-dimethyl-1H-imidazol-5-yl)-2-methoxyphenyl)-6-(oxazol-5-yl)isoquinolin-3-amine] | 4
24 | COc1cc(-c2cnc(C)n2C)ccc1Nc1cc2cc(-c3cccnc3)ccc2cn1 [Example 16, N-(4-(1,2-dimethyl-1H-imidazol-5-yl)-2-methoxyphenyl)-6-(pyridin-3-yl)isoquinolin-3-amine] | 3
25 | COc1cc(-c2cnc(C)n2C)ccc1Nc1cc2cc(-c3ccncc3)ccc2cn1 [Example 7, N-(4-(1,2-dimethyl-1H-imidazol-5-yl)-2-methoxyphenyl)-6-(pyridin-4-yl)isoquinolin-3-amine] | 145
26 | COc1cc(-c2cnc(C)n2C)ccc1Nc1cc2cc(-c3cnn(C4COC4)c3)ccc2cn1 [Example 33, N-(4-(1,2-Dimethyl-1H-imidazol-5-yl)-2-methoxyphenyl)-6-(1-(oxetan-3-yl)-1H-pyrazol-4-yl)isoquinolin-3-amine] | 3
27 | COc1cc(-c2cnc(C)n2C)ccc1Nc1cc2cc(-c3cnc(C)n3C)ccc2cn1 [Example 5, 6-(1,2-Dimethyl-1H-imidazol-5-yl)-N-(4-(1,2-dimethyl-1H-imidazol-5-yl)-2-methoxyphenyl)-isoquinolin-3-amine] | 5
28 | COc1cc(-c2cnc(C)n2C)ccc1Nc1cc2cc(-c3cnn(CC(F)F)c3)ccc2cn1 [Example 3, 6-(1-(2,2-Difluoroethyl)-1H-pyrazol-4-yl)-N-(4-(1,2-dimethyl-1H-imidazol-5-yl)-2-methoxyphenyl)isoquinolin-3-amine] | 2
29 | COc1cc(-c2cnc(C)n2C)ccc1Nc1cc2cc(-c3cnn(CC4CCOCC4)c3)ccc2cn1 [Example 1, N-(4-(1,2-dimethyl-1H-imidazol-5-yl)-2-methoxyphenyl)-6-(1-((tetrahydro-2H-pyran-4-yl)methyl)-1H-pyrazol-4-yl)isoquinolin-3-amine] | 2
30 | COc1cc(-c2cnc(C)n2C)ccc1Nc1cc2cc(C3CC3)ccc2cn1 [Example 18, 6-Cyclopropyl-N-(4-(1,2-dimethyl-1H-imidazol-5-yl)-2-methoxyphenyl)isoquinolin-3-amine] | 144
31 | COc1cc(-c2nncn2C)ccc1Nc1cc2cc(-c3cnn(CC(C)(C)O)c3)ccc2cn1 [Example 41, 1-(4-(3-((2-Methoxy-4-(4-methyl-4H-1,2,4-triazol-3-yl)phenyl)amino)isoquinolin-6-yl)-1H-pyrazol-1-yl)-2-methylpropan-2-ol] | 1
